According to PubChem BioAssay (NCI):
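Step 1: Grow cells in 96-well plates. Step 2: Expose to compound for 48 hours at 5 concentrations. Step 3: Interpolate endpoints linearly; if unreached, use highest concentration. Definition used: TGI = concentration required for complete inhibition of growth.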 Where a SMILES comes first, the peptide text is derived from it. [ ]: non-standard residue; d: D form. The star is where a group is joined. ξ: configuration not given here. NMeF = CN[C@@H](Cc1ccccc1)C(=O)O; NMeV = CN[C@H](C(=O)O)C(C)C; ξNMeV = CNC(C(=O)O)C(C)C; Boc = CC(C)(C)OC(=O)*; OBn = c1ccc(CO*)cc1

Columns and labels:
Test in all cases: NCI-60 cell line screen, 48 h
UACC-257 melanoma = tested on: UACC-257 melanoma
RXF 393 renal = tested on: RXF 393 renal
CCRF-CEM leukemia = tested on: CCRF-CEM leukemia
UACC-62 melanoma = tested on: UACC-62 melanoma
SNB-19 CNS = tested on: SNB-19 CNS
M19-MEL melanoma = tested on: M19-MEL melanoma
HT29 colon = tested on: HT29 colon
HOP-18 NSCLC = tested on: HOP-18 NSCLC
DU-145 prostate = tested on: DU-145 prostate
BT-549 breast = tested on: BT-549 breast
HS 578T breast = tested on: HS 578T breast

How did the TGI (UACC-257 melanoma) turn out when `CC(C)C(C(=O)N(C)[C@H](C(=O)N1CCC[C@H]1C(=O)N(C)[C@@H](Cc1ccccc1)C(=O)OCc1ccccc1)C(C)C)N(C)C(=O)[C@@H](NC(=O)OC(C)(C)C)C(C)C` (some centres not stated) (Boc-V[ξNMeV][NMeV]P[NMeF]-OBn) was run?
The TGI was greater than 31.6 µM.

And the TGI (RXF 393 renal)?
The TGI was greater than 31.6 µM.

What about the TGI (CCRF-CEM leukemia) of the same molecule?
Its TGI is greater than 31.6 µM.

What about the TGI (UACC-62 melanoma) of the same molecule?
The TGI was greater than 31.6 µM.

What about the TGI (SNB-19 CNS) of the same molecule?
The TGI was greater than 31.6 µM.

What about the TGI (M19-MEL melanoma) of the same molecule?
Its TGI is greater than 31.6 µM.

What about the TGI (HT29 colon) of the same molecule?
Its TGI is greater than 31.6 µM.

What about the TGI (HOP-18 NSCLC) of the same molecule?
The TGI was greater than 100 µM.

Which TGI (UACC-257 melanoma) does the source give for `CSC(C1c2ccccc2N(C)c2[nH]c(=O)n(C)c(=O)c21)S(=O)(=O)c1ccc(C)cc1` (configuration not stated) here?
The TGI was greater than 100 µM.

And the TGI (CCRF-CEM leukemia)?
Its TGI is greater than 100 µM.

And the TGI (UACC-62 melanoma)?
The TGI was greater than 100 µM.

And the TGI (SNB-19 CNS)?
The TGI was greater than 100 µM.

What about the TGI (M19-MEL melanoma) of the same molecule?
Its TGI is greater than 100 µM.

What about the TGI (HT29 colon) of the same molecule?
The TGI was greater than 100 µM.

What about the TGI (HOP-18 NSCLC) of the same molecule?
The TGI was greater than 100 µM.

What does the source list for `Brc1ccc(-c2cc3c(cc2C2SCCS2)OCO3)cc1`?
TGI (UACC-257 melanoma): > 100 µM; TGI (RXF 393 renal): 77.2 µM; TGI (CCRF-CEM leukemia): > 100 µM; TGI (SNB-19 CNS): > 100 µM; TGI (M19-MEL melanoma): > 100 µM; TGI (HT29 colon): > 100 µM; TGI (HOP-18 NSCLC): > 100 µM

For `COc1ccc(NC(=O)C(=O)Cc2ccc([N+](=O)[O-])c([N+](=O)[O-])c2CC(=O)C(=O)Nc2ccc(OC)cc2OC)c(OC)c1`, which TGI (UACC-257 melanoma) is on record?
Its TGI is greater than 100 µM.

What about the TGI (RXF 393 renal) of the same molecule?
Its TGI is greater than 100 µM.

What about the TGI (CCRF-CEM leukemia) of the same molecule?
The TGI was greater than 100 µM.

What about the TGI (UACC-62 melanoma) of the same molecule?
Its TGI is greater than 100 µM.

What about the TGI (SNB-19 CNS) of the same molecule?
Its TGI is greater than 100 µM.

What about the TGI (M19-MEL melanoma) of the same molecule?
Its TGI is greater than 100 µM.

What about the TGI (HT29 colon) of the same molecule?
Its TGI is greater than 100 µM.

What about the TGI (HOP-18 NSCLC) of the same molecule?
Its TGI is greater than 100 µM.

With `N#COc1ccc(Oc2ccc(OC#N)cc2)cc1` as the molecule, how does the TGI (UACC-257 melanoma) read?
Its TGI is greater than 100 µM.

And the TGI (RXF 393 renal)?
The TGI was greater than 100 µM.

And the TGI (CCRF-CEM leukemia)?
The TGI was 50.4 µM.

And the TGI (UACC-62 melanoma)?
The TGI was greater than 100 µM.

And the TGI (SNB-19 CNS)?
Its TGI is greater than 100 µM.

What about the TGI (M19-MEL melanoma) of the same molecule?
Its TGI is greater than 100 µM.

What about the TGI (HT29 colon) of the same molecule?
The TGI was greater than 100 µM.

And the TGI (HOP-18 NSCLC)?
Its TGI is greater than 100 µM.

`CC12CCc3ccccc3C1=NNC(=O)C2` (configuration not stated) was tested. Which TGI (UACC-257 melanoma) did it give?
The TGI was greater than 100 µM.

What about the TGI (RXF 393 renal) of the same molecule?
The TGI was greater than 100 µM.

And the TGI (CCRF-CEM leukemia)?
Its TGI is greater than 100 µM.

What about the TGI (SNB-19 CNS) of the same molecule?
Its TGI is greater than 100 µM.

What about the TGI (M19-MEL melanoma) of the same molecule?
The TGI was greater than 100 µM.

What about the TGI (HT29 colon) of the same molecule?
The TGI was greater than 100 µM.

And the TGI (HOP-18 NSCLC)?
Its TGI is greater than 100 µM.

For `CCCCCCCCCCCC[N+]12CC[N+](C)(CC1)CC2`, which TGI (UACC-257 melanoma) is on record?
The TGI was greater than 100 µM.

And the TGI (RXF 393 renal)?
Its TGI is 3.34 µM.

What about the TGI (CCRF-CEM leukemia) of the same molecule?
Its TGI is 53.3 µM.

What about the TGI (UACC-62 melanoma) of the same molecule?
Its TGI is greater than 100 µM.

What about the TGI (SNB-19 CNS) of the same molecule?
Its TGI is 38.7 µM.

What about the TGI (M19-MEL melanoma) of the same molecule?
The TGI was 70.9 µM.

And the TGI (HT29 colon)?
The TGI was 51.4 µM.

And the TGI (HOP-18 NSCLC)?
The TGI was greater than 100 µM.

Which results are given for `COC(=O)C(CCC1(C)OCCO1)=[N+]=[N-]`?
TGI (UACC-257 melanoma): > 100 µM; TGI (RXF 393 renal): > 100 µM; TGI (CCRF-CEM leukemia): > 100 µM; TGI (SNB-19 CNS): > 100 µM; TGI (HT29 colon): > 100 µM; TGI (HOP-18 NSCLC): > 100 µM

What does the source list for `CN(C)CCC[N+]1=Nc2cccc3cccc(c23)N1`?
TGI (UACC-257 melanoma): > 100 µM; TGI (CCRF-CEM leukemia): 80.8 µM; TGI (UACC-62 melanoma): > 100 µM; TGI (SNB-19 CNS): > 100 µM; TGI (M19-MEL melanoma): > 100 µM; TGI (HT29 colon): > 100 µM; TGI (HOP-18 NSCLC): > 100 µM

For `COc1ccc(-c2oc3cc(O)c(OC)c(O)c3c(=O)c2O)cc1`, which TGI (UACC-257 melanoma) is on record?
The TGI was greater than 100 µM.

And the TGI (RXF 393 renal)?
The TGI was 50.2 µM.

What about the TGI (CCRF-CEM leukemia) of the same molecule?
Its TGI is 14.8 µM.

What about the TGI (UACC-62 melanoma) of the same molecule?
Its TGI is greater than 87.8 µM.

And the TGI (DU-145 prostate)?
The TGI was greater than 24.9 µM.

What about the TGI (BT-549 breast) of the same molecule?
Its TGI is 72.8 µM.

And the TGI (HS 578T breast)?
The TGI was greater than 92.7 µM.

And the TGI (SNB-19 CNS)?
Its TGI is greater than 100 µM.

What about the TGI (M19-MEL melanoma) of the same molecule?
Its TGI is greater than 100 µM.

And the TGI (HT29 colon)?
Its TGI is greater than 100 µM.

And the TGI (HOP-18 NSCLC)?
The TGI was greater than 100 µM.

Which results are given for `Cc1ccc(NC(=O)C2C3CCC(O3)C2C(=O)O)cc1` (configuration not stated)?
TGI (UACC-257 melanoma): > 100 µM; TGI (RXF 393 renal): 48.6 µM; TGI (CCRF-CEM leukemia): > 75.5 µM; TGI (UACC-62 melanoma): > 100 µM; TGI (SNB-19 CNS): > 100 µM; TGI (M19-MEL melanoma): > 100 µM; TGI (HT29 colon): > 64.2 µM; TGI (HOP-18 NSCLC): > 100 µM

For `Cc1nn2c(c1C#N)NNc1c-2sc(=N)nnc1=O`, which TGI (RXF 393 renal) is on record?
The TGI was greater than 100 µM.

And the TGI (CCRF-CEM leukemia)?
The TGI was greater than 100 µM.

What about the TGI (UACC-62 melanoma) of the same molecule?
The TGI was greater than 100 µM.

What about the TGI (SNB-19 CNS) of the same molecule?
Its TGI is greater than 100 µM.

What about the TGI (M19-MEL melanoma) of the same molecule?
The TGI was greater than 100 µM.

What about the TGI (HT29 colon) of the same molecule?
The TGI was greater than 100 µM.

What about the TGI (HOP-18 NSCLC) of the same molecule?
Its TGI is greater than 100 µM.
